Measurements as given in patent US20070218030A1, “Dietetic Preparation for Prevention and Treatment of Osteoporosis” (priority 2003, published 2007).

Tested on: ovarectomised female rats
Experiment: experimental osteoporosis in ovarectomised female rats, oral administration
Type: in vivo
Conditions: for symptoms of osteoporosis: female rats after surgically removed ovaries, administered orally, not yet published experimental results
Procedure: An experiment was carried out on ovarectomised female rats in which an experimental osteoporosis was induced.

[1] = ovarectomised female rats with induced experimental osteoporosis, oral, molecular weight over 500 000 g/mol, dosage 150 to 4500 μg/kg

| Substance | symptoms of osteoporosis | bone density [1] | excretion of the metabolite of bone matrix breakdown into urine [1] |
| --- | --- | --- | --- |
| calcium hyaluronate | able to suppress symptoms of osteoporosis |  |  |
| sodium hyaluronate | able to suppress symptoms of osteoporosis | normalisation of bone density | returned to normal |
